Data as given in paper PMC4494771, “Synthesis, structure, and biological activity of novel heterocyclic sulfonyl-carboximidamides” (Monatshefte Fur Chemie, 2013).
Converted amounts (≈) assume the structure as drawn.

test system: M. tuberculosis sp. 210; test: Tuberculostatic activity, classical test-tube method of successive dilution; assay type: cell-based; settings: Mycobacterium tuberculosis; sp. 210, wild strain resistant to PAS, INH, ETB, RFP

`NC(=NS(=O)(=O)c1cnccc1Cl)c1cnccn1` [Compound 10, N′-[(4-Chloropyridin-3-yl)sulfonyl]pyrazine-2-carboximidamide] and `NC(=NS(=O)(=O)c1cnccc1Cl)c1ccccn1` [Compound 2, N′-[(4-Chloropyridin-3-yl)sulfonyl]-2-pyridinecarboximidamide] are the same in MIC: 50 µg/mL (≈ 168 µM) for the first, 50 µg/mL (≈ 168 µM) for the second.

`NC(=NS(=O)(=O)c1ccccc1Cl)c1ncccn1` [Compound 7, N′-[(2-Chlorophenyl)sulfonyl]pyrimidine-2-carboximidamide] and `NC(=NS(=O)(=O)c1cnccc1Cl)c1ncccn1` [Compound 8, N′-[(4-Chloropyridin-3-yl)sulfonyl]pyrimidine-2-carboximidamide] are the same in MIC: 50 µg/mL (≈ 168 µM) for the first, 50 µg/mL (≈ 168 µM) for the second.

In the case of `NNC(=O)c1ccncc1` [INH, isoniazid, reference compound], the MIC is reported as 1.1 µg/mL (≈ 8.02 µM).
